Test results as given in patent US20110045102A1, “Cancer chemotherapy compositions comprising PI3K pathway modulators and triptolide” (priority 2005, published 2011).

Legend:
OCC1-SEAP-12 cells = assay: DNA laddering on agarose gel (Example III); assay type: cell-based, human; settings: 48 hr and 72 hr
Procedure: (§1) Following 48 hr to 72 hr treatment incubations, cells were suspended into culture medium and pelleted in tubes. DNA was isolated from collected cells using a Puregene™ DNA isolation kit (Gentra Systems, Minneapolis, Minn.). The quantity and purity of nucleic acid preparations were estimated by measuring the optical density of each sample A260/A280). DNA preparations (10 μg/well) were loaded onto 1.2% agarose gels and visualized with ethidium bromide stain.

OCC1-SEAP cell cultures = assay: DNA fragmentation (laddering) on agarose gel (Example II); assay type: cell-based, human; settings: 48 hr; TPL 100 ng/ml, carboplatin 50 μg/ml
Procedure: as §1, with “h” for “hr”, “absorbance” for “optical density”, “(A260/A280).” for “A260/A280).”

caspase 3 = assay: Western blot for active caspase 3 (Example III); assay type: cell-based, human; settings: LY294002 10 μM, carboplatin 50 μg/ml
Procedure: The OCC1-SEAP-12 cells were grown to 80% confluence. Cultures were incubated in DMEM plus 0.1% bovine serum albumin (BSA) and 0.1% BCS to which either vehicle control, carboplatin (0-50 μg/ml), LY294002 (0-20 μM) or combinations of these treatments. Following 24, 48 or 72 hr cells were lysed with sample buffer (62.5 mM Tris-HCl, pH 6.8, 2% SDS, 5% glycerol, […], 0.5% β-mercaptoethanol). Total cell lysates were subjected to SDS polyacrylamide gel electrophoresis 9 page) and transferred to PVDF membranes (Millipore, Bedford, Mass.). Membranes were immunoblotted with antibodies to both the phosphorylated and non-phosphorylated forms of […] (Cell Signaling Technology, Beverly, Mass.), or alternatively, with antibodies to cleaved and full length caspase-3 (Cell Signaling Technology, Beverly, Mass.).

Akt = assay: Western blot for Akt phosphorylation (Example III); assay type: cell-based, human; settings: 6 hr and 24 hr; LY294002 10 (FIG. 18 legend: mM), carboplatin 50
Procedure: The OCC1-SEAP-12 cells were grown to 80% confluence. […] […] Total cell lysates were subjected to SDS polyacrylamide gel electrophoresis 9 page) and transferred to PVDF membranes (Millipore, Bedford, Mass.). Membranes were immunoblotted with antibodies to both the phosphorylated and non-phosphorylated forms of […] (Cell Signaling Technology, Beverly, Mass.), or alternatively, with antibodies to cleaved and full length caspase-3 (Cell Signaling Technology, Beverly, Mass.).

caspase-3 = assay: Western blot for active caspase-3 (Example II); assay type: cell-based, human; settings: carboplatin alone
[1] = system: OCC1-SEAP intraperitoneal tumors; assay: Nude mouse intraperitoneal OCC1-SEAP tumor model, plasma SEAP (Example I); assay type: in vivo, athymic nude mice; settings: established tumors; carboplatin 60 mg/kg three times over 4 days
Procedure: Athymic nude mice (Nu/Nu; Charles River Laboratories, Wilmington, Mass.) weighing about 25 g were used for in vivo studies.
Three mice were injected intraperitoneally with 1×10^7 OCC1-SEAP-12 cells. The experimental treatments began after 1 week. […] Alternatively, four mice with well-developed tumors (2-4 weeks after injection) were treated with a high dose of carboplatin (60 mg/kg) three times over a period of 4 days. After death all visible intraperitoneal tumors were dissected out and weighed.
Blood samples were collected from saphenous vein lancings three times per week into heparinized capillary tubes. The capillary tubes were centrifuged and the plasma samples were frozen at −20° C. until the time of SEAP assay. Blood samples were taken for SEAP assay from the mice within 24 hours of death 2-3 weeks after intraperitoneal injection of OCC1-SEAP cells.
Blood plasma and cell culture medium samples were assayed for SEAP activity using the Great EscAPe SEAP fluorescence detection kit (Clontech Laboratories, Palo Alto, Calif.). SEAP is secreted at a constant rate by transfected tumor cells and distributed throughout the body or into the culture medium. SEAP is heat stable, so any endogenous alkaline phosphatase activity in blood plasma is destroyed by heat treatment of the samples (65° C. for 30 minutes) during the assay. The SEAP enzyme in each sample acts on the substrate 4-methylumbelliferyl phosphate during a 1 hour incubation at room temperature to produce a fluorescent product with excitation and emission peaks at 360 and 449 nm, respectively. A fluorimeter is then used to measure SEAP activity. The intra-assay and inter-assay coefficients of variation were 2.5% and 18.8%, respectively. Blood plasma samples were diluted 1:100 prior to the assay to bring values within the linear range of the standard curve.

[2] = system: OCC1-SEAP-12 ovarian cancer cells; assay type: in vivo
Procedure: Athymic nude mice were obtained and inoculated intraperitoneally with OCC1-SEAP-12 cells as described above in Examples I and II. Animals received injections of either vehicle control (PBS containing 25% DMSO), or carboplatin (60 mg/kg) alone, or in combination with LY294002 (50 mg/kg) every other day for 6 days. Blood samples were collected into capillary tubes from saphenous vein lancings at regular intervals during and following treatments. Capillary tubes were centrifuged, and the plasma samples were frozen (−20° C.), until the time of SEAP assay. The Washington State University Animal Care and Use Committee approved all procedures.
Blood plasma and cell culture medium samples were assayed for SEAP activity using the Great EscAPe SEAP fluorescence detection kit (Clontech Laboratories, Palo Alto, Calif.) as described above in Examples I and II. Blood plasma samples were diluted 1:100 prior to the assay to bring values within the linear range of the standard curve. The intraassay and interassay coefficients of variation were 2.5% and 18.8%, respectively.

Compound: N.N.O=C([O-])C1(C(=O)[O-])CCC1.[Pt+2] [carboplatin]
- DNA laddering (OCC1-SEAP-12 cells): observed
- DNA laddering (OCC1-SEAP cell cultures): evident
- time at which active 17 kDa caspase 3 appears (caspase 3): 48 h
- Akt phosphorylation (Akt): had not effect
- time until caspase-3 is activated post-treatment (caspase-3): 48 h
- tumor burden by plasma SEAP levels [1]: transiently decreased the tumor burden
- drug induced toxicity ([2]; carboplatin 60 mg/kg, alone or with LY294002 50 mg/kg): muscle wasting and became anemic
- abdominal swelling (FIG. 24) ([2]; physical appearance of mice after treatment): displayed abdominal swelling
- tumor size vs vehicle control (FIG. 23) ([2]; single agents: LY294002 50 mg/kg, carboplatin 60 mg/kg): no significant difference
